Tests used:
Test in all cases: relative viability (nuclei count vs DMSO), 5 days (fraction); higher = more cells survive
HOP-62 = test system: HOP-62
Summary of the method: (§1)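 Relative viability was taken as the ratio of nuclei in treated wells to nuclei in vehicle wells. Lung cancer cell lines in 1536-well plates received compounds by pin tool one day after seeding, either one drug alone or a fixed anchor-drug dose plus five library-drug doses (not always all listed) in √10 steps. Nuclei were counted on 4× images after 5 days of treatment, and values are medians of duplicate plates.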

NCI-H2405 = test system: NCI-H2405
Summary of the method: as §1

NCI-H647 = test system: NCI-H647
Summary of the method: as §1

201T = test system: 201T
Summary of the method: as §1

LK-2 = test system: LK-2
Summary of the method: as §1

COR-L23 = test system: COR-L23
Summary of the method: as §1

NCI-H460 = test system: NCI-H460
Summary of the method: as §1

EMC-BAC-2 = test system: EMC-BAC-2
Summary of the method: as §1

EKVX = test system: EKVX
Summary of the method: as §1

NCI-H1915 = test system: NCI-H1915
Summary of the method: as §1

NCI-H1734 = test system: NCI-H1734
Summary of the method: as §1

SK-MES-1 = test system: SK-MES-1
Summary of the method: as §1

PC-14 = test system: PC-14
Summary of the method: as §1

NCI-H1993 = test system: NCI-H1993
Summary of the method: as §1

A-427 = test system: A-427
Summary of the method: as §1

BEN = test system: BEN
Summary of the method: as §1

HCC-15 = test system: HCC-15
Summary of the method: as §1

HCC-78 = test system: HCC-78
Summary of the method: as §1

HCC-366 = test system: HCC-366
Summary of the method: as §1

COR-L 105 = test system: COR-L 105
Summary of the method: as §1

CCNC(=O)c1noc(-c2cc(C(C)C)c(O)cc2O)c1-c1ccc(CN2CCOCC2)cc1 [Luminespib] + CC1(C)CCC(c2ccc(Cl)cc2)=C(CN2CCN(c3ccc(C(=O)NS(=O)(=O)c4ccc(N[C@H](CCN5CCOCC5)CSc5ccccc5)c(S(=O)(=O)C(F)(F)F)c4)cc3)CC2)C1 [Navitoclax] (partner 0.5 µM)
relative viability (HOP-62; first compound 0.002 µM): 1 | relative viability (HOP-62; first compound 0.006325 µM): 1.07 | relative viability (HOP-62; first compound 0.02 µM): 1.07 | relative viability (HOP-62; first compound 0.06325 µM): 0.909 | relative viability (HOP-62; first compound 0.2 µM): 0.103 | relative viability (NCI-H2405; first compound 0.002 µM): 0.925 | relative viability (NCI-H2405; first compound 0.006325 µM): 0.583 | relative viability (NCI-H2405; first compound 0.02 µM): 0.704 | relative viability (NCI-H2405; first compound 0.06325 µM): 0.188 | relative viability (NCI-H2405; first compound 0.2 µM): 0.143 | relative viability (NCI-H647; first compound 0.002 µM): 1.23 | relative viability (NCI-H647; first compound 0.006325 µM): 1.06 | relative viability (NCI-H647; first compound 0.02 µM): 1.18 | relative viability (NCI-H647; first compound 0.06325 µM): 0.0943 | relative viability (NCI-H647; first compound 0.2 µM): 0.0973 | relative viability (201T; first compound 0.002 µM): 1.17 | relative viability (201T; first compound 0.006325 µM): 1.18 | relative viability (201T; first compound 0.02 µM): 1.13 | relative viability (201T; first compound 0.06325 µM): 1.15 | relative viability (201T; first compound 0.2 µM): 1.18 | relative viability (LK-2; first compound 0.002 µM): 0.826 | relative viability (LK-2; first compound 0.006325 µM): 0.936 | relative viability (LK-2; first compound 0.02 µM): 0.571 | relative viability (LK-2; first compound 0.06325 µM): 0.163 | relative viability (LK-2; first compound 0.2 µM): 0.159 | relative viability (COR-L23; first compound 0.002 µM): 1.14 | relative viability (COR-L23; first compound 0.006325 µM): 0.885 | relative viability (COR-L23; first compound 0.02 µM): 1 | relative viability (COR-L23; first compound 0.06325 µM): 0.0758 | relative viability (COR-L23; first compound 0.2 µM): 0.0617 | relative viability (NCI-H460; first compound 0.002 µM): 1.23 | relative viability (NCI-H460; first compound 0.006325 µM): 1.01 | relative viability (NCI-H460; first compound 0.02 µM): 0.0537 | relative viability (NCI-H460; first compound 0.06325 µM): 0.0176 | relative viability (NCI-H460; first compound 0.2 µM): 0.0134 | relative viability (EMC-BAC-2; first compound 0.002 µM): 1.15 | relative viability (EMC-BAC-2; first compound 0.006325 µM): 1.09 | relative viability (EMC-BAC-2; first compound 0.02 µM): 1.12 | relative viability (EMC-BAC-2; first compound 0.06325 µM): 1.16 | relative viability (EMC-BAC-2; first compound 0.2 µM): 1.13 | relative viability (EKVX; first compound 0.002 µM): 0.922 | relative viability (EKVX; first compound 0.006325 µM): 0.801 | relative viability (EKVX; first compound 0.02 µM): 0.677 | relative viability (EKVX; first compound 0.06325 µM): 0.518 | relative viability (EKVX; first compound 0.2 µM): 0.0817 | relative viability (NCI-H1915; first compound 0.002 µM): 0.8 | relative viability (NCI-H1915; first compound 0.006325 µM): 0.793 | relative viability (NCI-H1915; first compound 0.02 µM): 0.803 | relative viability (NCI-H1915; first compound 0.06325 µM): 0.808 | relative viability (NCI-H1915; first compound 0.2 µM): 0.775 | relative viability (NCI-H1734; first compound 0.002 µM): 0.878 | relative viability (NCI-H1734; first compound 0.006325 µM): 0.698 | relative viability (NCI-H1734; first compound 0.02 µM): 0.777 | relative viability (NCI-H1734; first compound 0.06325 µM): 0.172 | relative viability (NCI-H1734; first compound 0.2 µM): 0.122 | relative viability (SK-MES-1; first compound 0.002 µM): 1.27 | relative viability (SK-MES-1; first compound 0.006325 µM): 1.24 | relative viability (SK-MES-1; first compound 0.02 µM): 1.28 | relative viability (SK-MES-1; first compound 0.06325 µM): 0.149 | relative viability (SK-MES-1; first compound 0.2 µM): 0.131 | relative viability (PC-14; first compound 0.002 µM): 0.996 | relative viability (PC-14; first compound 0.006325 µM): 0.945 | relative viability (PC-14; first compound 0.02 µM): 1.17 | relative viability (PC-14; first compound 0.06325 µM): 0.0977 | relative viability (PC-14; first compound 0.2 µM): 0.128 | relative viability (NCI-H1993; first compound 0.002 µM): 0.937 | relative viability (NCI-H1993; first compound 0.006325 µM): 1.02 | relative viability (NCI-H1993; first compound 0.02 µM): 0.762 | relative viability (NCI-H1993; first compound 0.06325 µM): 0.644 | relative viability (NCI-H1993; first compound 0.2 µM): 0.466 | relative viability (A-427; first compound 0.002 µM): 1.01 | relative viability (A-427; first compound 0.006325 µM): 0.913 | relative viability (A-427; first compound 0.02 µM): 0.497 | relative viability (A-427; first compound 0.06325 µM): 0.99 | relative viability (A-427; first compound 0.2 µM): 1.03 | relative viability (BEN; first compound 0.002 µM): 0.0714 | relative viability (BEN; first compound 0.006325 µM): 0.0602 | relative viability (BEN; first compound 0.02 µM): 0.0673 | relative viability (BEN; first compound 0.06325 µM): 0.0655 | relative viability (BEN; first compound 0.2 µM): 0.0846 | relative viability (HCC-15; first compound 0.002 µM): 0.647 | relative viability (HCC-15; first compound 0.006325 µM): 0.708 | relative viability (HCC-15; first compound 0.02 µM): 0.755 | relative viability (HCC-15; first compound 0.06325 µM): 0.44 | relative viability (HCC-15; first compound 0.2 µM): 0.419 | relative viability (HCC-78; first compound 0.002 µM): 0.874 | relative viability (HCC-78; first compound 0.06325 µM): 1.12 | relative viability (HCC-78; first compound 0.2 µM): 0.21 | relative viability (HCC-366; first compound 0.002 µM): 1.11 | relative viability (HCC-366; first compound 0.006325 µM): 0.981 | relative viability (HCC-366; first compound 0.02 µM): 0.966 | relative viability (HCC-366; first compound 0.06325 µM): 0.0276 | relative viability (HCC-366; first compound 0.2 µM): 0.0215 | relative viability (COR-L 105; first compound 0.002 µM): 0.729 | relative viability (COR-L 105; first compound 0.006325 µM): 0.696 | relative viability (COR-L 105; first compound 0.02 µM): 1.12 | relative viability (COR-L 105; first compound 0.06325 µM): 0.278 | relative viability (COR-L 105; first compound 0.2 µM): 0.234
